Tested on: nicotinamide levels in mouse tissues
Experiment: tissue levels of nicotinamide in aged C57BL/6 mice after oral administration
Assay type: in vivo
Settings: 100 mg/kg BID oral, 72-week-old male C57BL/6J mice, 4 h after the 3rd administration, vs vehicle, FIG. 1
Experimental: 0.1% Tween 80/0.5% HPMC or compound 148 prepared with 0.1% Tween 80/0.5% HPMC was orally administered at 100 mg/kg BID to 72-week-old male C57BL/6J mice. 4 h after the 3rd administration, each mouse was euthanized, and tissues collected.
Whole blood was collected and placed into pre-chilled K2EDTA microtainer tube, rotated 3-4 times to ensure anticoagulant mixing. An aliquot from the whole blood collection was added to 10 volumes of 0.5M PCA (perchloric acid), inverted 3-4 times to mix well, and then frozen on dry ice. While under isoflurane after cardiac puncture for blood collection, the following tissues were harvested in this order: heart, liver lobe, then by brain. All tissues were processed using pre-chilled freeze clamp. The frozen tissues were placed in pre-frozen labeled 2 mL Eppendorf tubes. The tissues were stored at −80° C. until processing. Upon processing, each tissue was cryomilled in the frozen state to form a powder. Frozen powdered tissue was weighed into pre-frozen tubes. Approximately 10 volumes of 0.5M PCA per weight of tissue were added to the tube followed by freezing until analysis. Upon analysis, blood and tissue samples were thawed on ice, followed by homogenization via TissueLyzer. Samples were centrifuged, the supernatant was collected and filtered, and the nicotinamide concentration in the supernatant of sample was measured using LC/MS.

CO[C@H]1CC[C@H](NC(=O)c2nccc(-c3cncn3C)n2)CC1 [Compound 148, N-((1r,4r)-4-methoxycyclohexyl)-4-(1-methyl-1H-imidazol-5-yl)pyrimidine-2-carboxamide]
decreased: nicotinamide levels in blood (blood) | nicotinamide levels in brain (brain) | nicotinamide levels in heart (heart) | nicotinamide levels in liver (liver)

From US20230116972A1, “CD38 MODULATORS AND METHODS OF USE THEREOF” (Cytokinetics, Inc., priority 2021, published 2023)
